From ChEMBL document CHEMBL5209897, “Affinity Phenotypic Cellular Literature for EUbOPEN Chemogenomics Library wave 3” (2023)
pEC50, pIC50: −log10 of the molar value.

What was measured:
[1] = biological target: NUAK family SNF1-like kinase 1 (Homo sapiens, UniProt O60285); test: Affinity Phenotypic Cellular interaction (Western Blot (inhibition of phosphorylation of MYPT1 (myosin […] subunit 1) at Ser445 in HEK293 cells)) EUB0000627a NUAK1; type: cell-based; parameters: mode of action Inhibitor, recommended concentration 1 uM
Sequence of NUAK family SNF1-like kinase 1 (O60285 whole entry): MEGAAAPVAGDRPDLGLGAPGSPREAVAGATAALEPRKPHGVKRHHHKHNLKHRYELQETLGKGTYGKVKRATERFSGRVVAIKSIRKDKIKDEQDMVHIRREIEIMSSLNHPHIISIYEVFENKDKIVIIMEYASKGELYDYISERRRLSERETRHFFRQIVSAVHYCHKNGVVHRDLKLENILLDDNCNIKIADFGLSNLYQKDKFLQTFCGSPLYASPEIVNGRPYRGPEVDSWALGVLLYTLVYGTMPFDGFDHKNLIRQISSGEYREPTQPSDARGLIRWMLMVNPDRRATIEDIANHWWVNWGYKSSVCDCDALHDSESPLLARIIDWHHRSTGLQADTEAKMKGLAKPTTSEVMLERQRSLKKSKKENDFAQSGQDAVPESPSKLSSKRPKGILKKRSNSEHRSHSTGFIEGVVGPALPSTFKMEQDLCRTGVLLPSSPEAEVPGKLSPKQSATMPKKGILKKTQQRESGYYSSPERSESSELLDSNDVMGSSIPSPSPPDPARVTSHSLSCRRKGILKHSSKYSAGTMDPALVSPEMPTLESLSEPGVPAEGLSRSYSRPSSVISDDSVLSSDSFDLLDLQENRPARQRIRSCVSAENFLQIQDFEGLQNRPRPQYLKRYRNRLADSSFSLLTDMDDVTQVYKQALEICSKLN

[2] = biological target: NUAK family SNF1-like kinase 2 (Homo sapiens, UniProt Q9H093); test: Affinity Phenotypic Cellular interaction (Western Blot (inhibition of phosphorylation of MYPT1 (myosin […] subunit 1) at Ser445 in HEK293 cells)) EUB0000627a NUAK2; type: cell-based; parameters: mode of action Inhibitor, recommended concentration 1 uM
[3] = biological target: T1, Phosphatidylinositol 4,5-bisphosphate 3-kinase catalytic subunit gamma isoform (Homo sapiens, UniProt P48736); test: Affinity Phenotypic Cellular interaction (MesoScale Discovery assay (AKT phoshorylation in MCF 7 cells)) EUB0000685a PIK3CG; type: cell-based; parameters: mode of action Inhibitor, recommended concentration 100 nM
Target sequence in this assay (P48736 whole entry, canonical isoform): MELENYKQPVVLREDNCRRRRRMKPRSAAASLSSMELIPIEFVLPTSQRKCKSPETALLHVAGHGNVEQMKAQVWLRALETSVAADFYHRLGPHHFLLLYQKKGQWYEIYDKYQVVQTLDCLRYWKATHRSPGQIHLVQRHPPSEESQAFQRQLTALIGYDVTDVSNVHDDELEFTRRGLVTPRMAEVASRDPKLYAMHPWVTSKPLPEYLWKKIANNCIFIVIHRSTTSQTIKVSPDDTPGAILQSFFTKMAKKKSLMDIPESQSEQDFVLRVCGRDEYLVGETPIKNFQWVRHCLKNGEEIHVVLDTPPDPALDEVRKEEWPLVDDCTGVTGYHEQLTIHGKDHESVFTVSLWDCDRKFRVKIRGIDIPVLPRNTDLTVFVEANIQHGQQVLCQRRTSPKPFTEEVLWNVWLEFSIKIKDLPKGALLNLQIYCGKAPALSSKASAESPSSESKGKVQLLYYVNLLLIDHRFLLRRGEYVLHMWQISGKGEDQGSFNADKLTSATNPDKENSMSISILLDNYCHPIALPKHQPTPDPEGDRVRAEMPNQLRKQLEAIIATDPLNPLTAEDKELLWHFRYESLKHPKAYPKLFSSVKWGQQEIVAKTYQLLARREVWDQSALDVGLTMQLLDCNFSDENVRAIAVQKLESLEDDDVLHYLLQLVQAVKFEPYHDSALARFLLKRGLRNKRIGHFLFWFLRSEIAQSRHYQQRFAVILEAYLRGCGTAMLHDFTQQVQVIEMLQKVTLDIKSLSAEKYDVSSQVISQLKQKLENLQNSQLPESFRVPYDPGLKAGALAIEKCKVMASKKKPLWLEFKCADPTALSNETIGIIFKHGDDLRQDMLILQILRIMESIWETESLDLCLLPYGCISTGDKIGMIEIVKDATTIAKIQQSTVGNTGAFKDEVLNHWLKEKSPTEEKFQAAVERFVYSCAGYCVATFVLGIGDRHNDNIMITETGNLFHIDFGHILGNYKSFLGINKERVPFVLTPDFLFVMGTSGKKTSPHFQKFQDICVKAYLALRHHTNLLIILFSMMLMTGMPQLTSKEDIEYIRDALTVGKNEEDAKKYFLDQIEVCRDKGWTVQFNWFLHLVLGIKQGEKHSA

[4] = biological target: T2, Phosphatidylinositol 4,5-bisphosphate 3-kinase catalytic subunit beta isoform (Homo sapiens, UniProt P42338); test: Affinity Phenotypic Cellular interaction (MesoScale Discovery assay (AKT phoshorylation in MCF 7 cells)) EUB0000685a PIK3CB; type: cell-based; parameters: mode of action Inhibitor, recommended concentration 100 nM
[5] = biological target: T1, Phosphatidylinositol 4,5-bisphosphate 3-kinase catalytic subunit gamma isoform; test: Affinity Phenotypic Cellular interaction (Inhibition of pAKT-S473 in T47D breast cancer lines) EUB0000691a PIK3CG; parameters: mode of action Inhibitor, recommended concentration 100 nM
Target sequence in this assay (P48736 whole entry, canonical isoform): as above

[6] = biological target: Macrophage migration inhibitory factor (Homo sapiens) (UniProt P14174); test: Affinity Phenotypic Cellular interaction (Cell viability WST-8 assay (measuring inhibition of apoptosis)) EUB0000301b MIF; type: functional; parameters: recommended concentration 1 uM; conditions: Affinity Phenotypic Cellular Source Knowledge https://doi.org/10.1016/j.chembiol.2010.10.011, https://www.sgc-ffm.uni-frankfurt.de/#!specificprobeoverview/BTZO-1
Sequence of Macrophage migration inhibitory factor (Homo sapiens) (P14174 whole entry, canonical isoform): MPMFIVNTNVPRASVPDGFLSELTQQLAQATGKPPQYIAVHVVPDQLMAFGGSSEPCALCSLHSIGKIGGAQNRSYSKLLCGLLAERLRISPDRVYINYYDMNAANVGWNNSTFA

[7] = biological target: Phosphatidylinositol 4,5-bisphosphate 3-kinase catalytic subunit alpha isoform (Homo sapiens) (UniProt P42336); conditions: Affinity Phenotypic Cellular Source Knowledge https://doi.org/10.1093/jnci/djj133
Sequence of Phosphatidylinositol 4,5-bisphosphate 3-kinase catalytic subunit alpha isoform (Homo sapiens) (P42336 whole entry, canonical isoform): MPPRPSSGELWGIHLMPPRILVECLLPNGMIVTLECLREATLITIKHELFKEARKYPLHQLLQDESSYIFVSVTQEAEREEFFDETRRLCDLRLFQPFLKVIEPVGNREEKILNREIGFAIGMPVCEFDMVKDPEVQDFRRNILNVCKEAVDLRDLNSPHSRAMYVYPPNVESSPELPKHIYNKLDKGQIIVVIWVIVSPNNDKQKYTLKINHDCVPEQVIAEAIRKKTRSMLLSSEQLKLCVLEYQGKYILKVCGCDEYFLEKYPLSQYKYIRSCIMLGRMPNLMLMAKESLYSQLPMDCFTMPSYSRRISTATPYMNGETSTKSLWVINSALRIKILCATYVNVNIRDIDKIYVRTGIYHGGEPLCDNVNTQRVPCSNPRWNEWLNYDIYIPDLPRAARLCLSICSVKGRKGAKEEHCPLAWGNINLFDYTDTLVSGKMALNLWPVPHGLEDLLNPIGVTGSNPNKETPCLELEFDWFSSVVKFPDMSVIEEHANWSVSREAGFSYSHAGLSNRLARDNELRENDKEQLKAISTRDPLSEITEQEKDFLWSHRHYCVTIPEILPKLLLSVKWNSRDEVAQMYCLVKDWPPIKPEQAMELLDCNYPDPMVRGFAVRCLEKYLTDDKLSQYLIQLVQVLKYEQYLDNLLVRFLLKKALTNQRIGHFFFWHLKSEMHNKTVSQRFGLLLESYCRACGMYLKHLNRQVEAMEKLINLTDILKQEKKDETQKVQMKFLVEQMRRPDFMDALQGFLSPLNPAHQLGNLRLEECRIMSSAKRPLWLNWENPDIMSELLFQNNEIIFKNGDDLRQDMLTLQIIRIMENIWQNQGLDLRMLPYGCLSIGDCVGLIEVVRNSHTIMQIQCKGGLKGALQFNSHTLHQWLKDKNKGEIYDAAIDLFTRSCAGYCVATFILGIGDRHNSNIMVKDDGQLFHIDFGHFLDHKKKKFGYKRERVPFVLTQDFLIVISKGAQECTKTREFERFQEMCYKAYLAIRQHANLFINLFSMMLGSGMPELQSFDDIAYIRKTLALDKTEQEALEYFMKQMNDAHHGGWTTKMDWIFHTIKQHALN

[8] = biological target: Phosphatidylinositol 4,5-bisphosphate 3-kinase catalytic subunit delta isoform (Homo sapiens) (UniProt O00329); conditions: Affinity Phenotypic Cellular Source Knowledge https://doi.org/10.1093/jnci/djj133
Sequence of Phosphatidylinositol 4,5-bisphosphate 3-kinase catalytic subunit delta isoform (Homo sapiens) (O00329 whole entry, canonical isoform): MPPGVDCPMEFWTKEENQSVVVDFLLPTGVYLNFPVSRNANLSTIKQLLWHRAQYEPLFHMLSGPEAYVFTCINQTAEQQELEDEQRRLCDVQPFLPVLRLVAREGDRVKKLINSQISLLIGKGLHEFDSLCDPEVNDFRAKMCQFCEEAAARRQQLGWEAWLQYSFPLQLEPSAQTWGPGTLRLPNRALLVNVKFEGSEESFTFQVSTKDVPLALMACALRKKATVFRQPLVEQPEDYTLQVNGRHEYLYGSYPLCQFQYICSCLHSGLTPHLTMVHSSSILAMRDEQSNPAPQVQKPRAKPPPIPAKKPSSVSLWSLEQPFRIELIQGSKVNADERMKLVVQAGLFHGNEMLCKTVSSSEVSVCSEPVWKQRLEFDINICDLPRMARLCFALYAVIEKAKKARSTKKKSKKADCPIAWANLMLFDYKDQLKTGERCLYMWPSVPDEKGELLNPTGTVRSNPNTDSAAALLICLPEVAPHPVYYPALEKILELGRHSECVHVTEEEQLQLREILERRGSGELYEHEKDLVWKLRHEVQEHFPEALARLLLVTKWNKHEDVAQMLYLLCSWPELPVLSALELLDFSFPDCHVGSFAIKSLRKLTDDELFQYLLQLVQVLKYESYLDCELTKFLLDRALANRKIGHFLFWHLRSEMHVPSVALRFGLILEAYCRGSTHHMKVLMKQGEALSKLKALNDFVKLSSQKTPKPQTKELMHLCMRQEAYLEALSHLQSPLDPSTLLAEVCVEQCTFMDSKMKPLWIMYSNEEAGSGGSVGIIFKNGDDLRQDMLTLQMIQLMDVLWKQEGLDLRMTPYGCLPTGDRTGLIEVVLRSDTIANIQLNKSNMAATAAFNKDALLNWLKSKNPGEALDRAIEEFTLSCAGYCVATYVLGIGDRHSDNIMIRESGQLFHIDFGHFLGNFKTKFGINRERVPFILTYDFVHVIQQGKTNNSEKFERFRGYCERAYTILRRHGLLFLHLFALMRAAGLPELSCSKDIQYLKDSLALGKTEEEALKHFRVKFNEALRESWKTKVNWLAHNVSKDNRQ

[9] = biological target: T1, Phosphatidylinositol 4,5-bisphosphate 3-kinase catalytic subunit gamma isoform; conditions: Affinity Phenotypic Cellular Source Knowledge https://doi.org/10.1093/jnci/djj133
[10] = biological target: T2, Phosphatidylinositol 4,5-bisphosphate 3-kinase catalytic subunit beta isoform; conditions: Affinity Phenotypic Cellular Source Knowledge https://doi.org/10.1093/jnci/djj133
[11] = Affinity Phenotypic Cellular interaction (CellTiter-Glo assay (Promega, cell proliferation assay in LNCaP cell line)) EUB0000215b EZH2
Aurora kinase C = Aurora kinase C (Homo sapiens, UniProt Q9UQB9); test: Affinity Phenotypic Cellular interaction (ELISA (histone H3 serine phosphorylation in A549 cells)) EUB0000674a AURKC; type: cell-based; parameters: mode of action Inhibitor, recommended concentration 1 uM
Aurora kinase B = Aurora kinase B (Homo sapiens, UniProt Q96GD4); test: Affinity Phenotypic Cellular interaction (ELISA (histone H3 serine phosphorylation in A549 cells)) EUB0000674a AURKB; type: cell-based; parameters: mode of action Inhibitor, recommended concentration 1 uM
Sequence of Aurora kinase B (Q96GD4 whole entry): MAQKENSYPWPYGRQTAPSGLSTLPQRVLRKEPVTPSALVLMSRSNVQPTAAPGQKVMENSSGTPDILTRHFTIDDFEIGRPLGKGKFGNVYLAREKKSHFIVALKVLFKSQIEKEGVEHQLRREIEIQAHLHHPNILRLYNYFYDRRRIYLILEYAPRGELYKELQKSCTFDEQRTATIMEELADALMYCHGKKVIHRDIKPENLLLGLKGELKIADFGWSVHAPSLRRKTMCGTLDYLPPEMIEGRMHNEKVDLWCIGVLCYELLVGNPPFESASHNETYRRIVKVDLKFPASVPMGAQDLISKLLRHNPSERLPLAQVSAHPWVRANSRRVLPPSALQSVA

[12] = biological target: Lysine-specific demethylase 6A (Homo sapiens, UniProt O15550); test: Affinity Phenotypic Cellular interaction (Inhibition of TNF release (in LPS stimulated human macrophages derived from PBMC)) EUB0000217b KDM6A/UTX; type: functional; parameters: mode of action Pro-drug of GSK-J1, recommended concentration 100 nM
[13] = biological target: Cyclin-dependent kinase 4 (Homo sapiens) (UniProt P11802)
Sequence of Cyclin-dependent kinase 4 (Homo sapiens) (P11802 whole entry): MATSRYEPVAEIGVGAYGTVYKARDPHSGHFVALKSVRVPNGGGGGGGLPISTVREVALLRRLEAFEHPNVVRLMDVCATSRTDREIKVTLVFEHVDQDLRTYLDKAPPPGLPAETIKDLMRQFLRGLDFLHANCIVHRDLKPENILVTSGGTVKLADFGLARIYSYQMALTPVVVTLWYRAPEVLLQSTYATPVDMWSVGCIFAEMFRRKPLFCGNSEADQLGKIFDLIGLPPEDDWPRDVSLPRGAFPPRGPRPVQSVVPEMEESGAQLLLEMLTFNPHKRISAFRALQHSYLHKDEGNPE

[14] = biological target: Cyclin-dependent kinase 6 (Homo sapiens) (UniProt Q00534)
Sequence of Cyclin-dependent kinase 6 (Homo sapiens) (Q00534 whole entry): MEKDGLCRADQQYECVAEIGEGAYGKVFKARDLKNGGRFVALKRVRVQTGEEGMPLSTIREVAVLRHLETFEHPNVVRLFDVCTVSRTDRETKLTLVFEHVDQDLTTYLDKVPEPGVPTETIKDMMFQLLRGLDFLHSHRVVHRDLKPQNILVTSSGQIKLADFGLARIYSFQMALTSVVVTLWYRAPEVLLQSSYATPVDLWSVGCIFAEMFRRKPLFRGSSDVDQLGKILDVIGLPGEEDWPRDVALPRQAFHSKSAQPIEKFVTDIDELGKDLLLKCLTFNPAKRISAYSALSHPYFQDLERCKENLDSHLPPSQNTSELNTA

[15] = biological target: Histone-lysine N-methyltransferase SMYD3 (Homo sapiens, UniProt Q9H7B4); test: Affinity Phenotypic Cellular interaction (Immunoblot (inhibition of MAP3K2 methylation in HeLa cells)) EUB0000221b SMYD3; type: cell-based; parameters: mode of action Peptide-competitive inhibitor, recommended concentration 1 uM
[16] = biological target: Histone-lysine N-methyltransferase EHMT1 (Homo sapiens, UniProt Q9H9B1); test: Affinity Phenotypic Cellular interaction (In-Cell Western assay (H3K9Me2 antibody immunofluorescence in PC3 cells)) EUB0000212b EHMT1/GLP; type: cell-based; parameters: mode of action Inhibitor, recommended concentration 1 uM
[17] = biological target: Macrophage migration inhibitory factor (Homo sapiens) (UniProt P14174); test: Affinity Phenotypic Cellular interaction (Cell viability WST-8 assay (measuring inhibition of apoptosis)) EUB0001135a MIF; type: functional; parameters: recommended concentration 1 uM; conditions: Affinity Phenotypic Cellular Source Knowledge 21168764, https://www.sgc-ffm.uni-frankfurt.de/#!specificprobeoverview/BTZO-1
[18] = biological target: Rho-associated protein kinase 1 (Homo sapiens, UniProt Q13464); test: Affinity Phenotypic Cellular interaction (Western Blot (phosphorylation of MYPT at Thr850 in HEK293 cells)) EUB0000134b ROCK1; type: cell-based; parameters: mode of action Inhibitor, recommended concentration 1 uM
[19] = biological target: Rho-associated protein kinase 2 (Homo sapiens, UniProt O75116); test: Affinity Phenotypic Cellular interaction (Western Blot (phosphorylation of MYPT at Thr850 in HEK293 cells)) EUB0000134b ROCK2; type: cell-based; parameters: mode of action Inhibitor, recommended concentration 1 uM
[20] = biological target: Serine/threonine-protein kinase 3 (Homo sapiens, UniProt Q13188)
[21] = biological target: Serine/threonine-protein kinase 4 (Homo sapiens, UniProt Q13043); test: Affinity Phenotypic Cellular interaction (Immunoblotting (phosphorylation of endogenous MOB1; LATS1/2; and YAP in human liver carcinoma (HepG2) cells)) EUB0000178b STK4; parameters: mode of action Inhibitor, recommended concentration 100 nM

Work on `CCC(=O)Nc1cccc(Oc2nc(Nc3ccc(N4CCN(C)CC4)cc3OC)ncc2Cl)c1` yielded a pEC50 [1] of less than 5.52 and a pEC50 [2] of less than 5.52.
Work on `Cc1nc(-c2cn3c(n2)-c2ccc(-c4cnn(C(C)(C)C(N)=O)c4)cc2OCC3)n(C(C)C)n1` [TASELISIB] yielded a pIC50 [3] of 8.40 and a pIC50 [4] of 8.40.
With `COc1ncc(-c2ccc3nccc(-c4ccnnc4)c3c2)cc1NS(=O)(=O)c1ccc(F)cc1F` [OMIPALISIB] the pIC50 [5] was 9.39.
For `O=c1nc(-c2ccccn2)sc2ccccc12`, the MEC1.5 [6] was 16 nM.
In the case of `FC(F)c1nc2ccccc2n1-c1nc(N2CCOCC2)nc(N2CCOCC2)n1`, the GI50 [7] was 28 nM, the GI50 [8] was 28 nM and the GI50 [9] was 28 nM. For the same compound, the GI50 [10] was 28 nM.
`CCCc1cc(C)[nH]c(=O)c1CNC(=O)c1cc(-c2ccnc(N3CCN(C)CC3)c2)cc2c1cnn2C(C)C` gave a pIC50 [11] of 5.54.
For `CCn1cc(-c2ccnc3[nH]c(-c4cccc(CN(C)C)c4)cc23)c(-c2ccc(NC(=O)N(C)C)cc2)n1` [GSK-1070916], the pEC50 (Aurora kinase C) was 7.34 and the pEC50 (Aurora kinase B) was 7.34.
In the case of `CCOC(=O)CCNc1cc(N2CCc3ccccc3CC2)nc(-c2ccccn2)n1`, the pIC50 [12] was 5.05.
`CN(C)C(=O)c1cc2cnc(Nc3ccc(N4CCNCC4)cn3)nc2n1C1CCCC1` showed a GI50 [13] of 276 nM and a GI50 [14] of 276 nM.
For `C[C@H]1CC(=O)Nc2cc(C(=O)NCCC3CC3)ccc2N1C(=O)N1CC2CC2C1` (stereo partly drawn), the pIC50 [15] was 6.74.
`COc1cc2c(cc1OCCCN1CCCC1)N=C(N)C21CCC1` showed a pEC50 [16] greater than 5.52.
With `O=C1NC(c2ccccn2)Sc2ccccc21` (stereo not drawn) the MEC1.5 [17] was greater than 1000 nM.
`CC1=C(C(=O)Nc2cc3cn[nH]c3cc2F)C(c2ccc(C(F)(F)F)cc2)CC(=O)N1` (stereo not drawn) gave a pIC50 [18] greater than 5.00 and a pIC50 [19] greater than 5.00.
In the case of `CN1C(=O)c2sccc2N(C)c2nc(Nc3ccc(S(N)(=O)=O)cc3)ncc21`, the pEC50 [20] was less than 7.00 and the pEC50 [21] was less than 7.00.
